Assay results published in patent EP4772502A1, “ARYL OR HETEROARYL SUBSTITUTED CARBAMATE COMPOUND AND DERIVATIVE AND USE THEREOF” (Shenzhen Zhongge Biological Technology Co., Ltd., priority 2023, dated 2025).

Legend:
AMPKα1β1γ1 = target: T1, AMPKα1β1γ1 (Homo sapiens, UniProt Q13131+Q9Y478); test: In vitro assay for AMPK (α1β1γ1) enzyme agonist activity (TR-FRET); assay type: biochemical; conditions: 1 h; activity of 1 µM A769662 set as 100%; read-out: Top value (%)
T1 construct: purchased CARNA 02-113
Description: Test example 1: In vitro assay for AMPK (α1β1γ1) enzyme agonist activity
Test compounds were dissolved in DMSO to prepare 10 mM stock solution, which was then diluted to the predetermined test concentrations using kinase buffer (50 mM HEPES, 1 mM EDTA, 10 mM MgCl2, 0.01% Brij-35, pH = 7.5). Into a 384-well plate were added 5 µL of AMPKα1β1γ1 (CARNA, 02-113), 2.5 µL of the diluted test compound solution, and 2.5 µL of a mixture of […] and ATP, resulting in the following final concentrations: AMPKα1β1γ1 at 1.6 mg/L, […] at 5 nM, and ATP at 0.1 mM. The components were mixed evenly, and reacted at room temperature for 1 h. Subsequently, 5 µL of LANCE Detection Buffer (CR97-100, PerkinElmer) containing 40 mM EDTA was added. After standing for 5 min, 5 µL of 4× Eu-anti-phospho-CREB Antibody (TRF0200-M, PerkinElmer) was added, and the mixture was allowed to stand at room temperature for 1 h. The values of samples in each well were read using a microplate reader in TR-FRET mode (excitation wavelength: 320 nm; emission wavelengths: 665 nm and 615 nm). By comparing the values with those of the blank control group (1% DMSO) and the positive control group (1 µM A769662), the relative activity of AMPKα1β1γ1 at each test compound concentration (4.57 nM, 13.72 nM, 41.15 nM, 123.46 nM, 370.37 nM, 1111.11 nM, 3333.33 nM, and 10000 nM) was calculated, with the activity of 1 µM A769662 set as 100%. The data were analysed in GraphPad Prism 9 using a Dose-response-Stimulation four-parameter regression model to obtain the Top and EC50 values for the test compounds.

AMPK = conditions: Tamura et al., Bioorganic & Medicinal Chemistry Letters, Vol. 68, 2022, 128769; cited from earlier work

T1 sequence (Q13131 whole entry): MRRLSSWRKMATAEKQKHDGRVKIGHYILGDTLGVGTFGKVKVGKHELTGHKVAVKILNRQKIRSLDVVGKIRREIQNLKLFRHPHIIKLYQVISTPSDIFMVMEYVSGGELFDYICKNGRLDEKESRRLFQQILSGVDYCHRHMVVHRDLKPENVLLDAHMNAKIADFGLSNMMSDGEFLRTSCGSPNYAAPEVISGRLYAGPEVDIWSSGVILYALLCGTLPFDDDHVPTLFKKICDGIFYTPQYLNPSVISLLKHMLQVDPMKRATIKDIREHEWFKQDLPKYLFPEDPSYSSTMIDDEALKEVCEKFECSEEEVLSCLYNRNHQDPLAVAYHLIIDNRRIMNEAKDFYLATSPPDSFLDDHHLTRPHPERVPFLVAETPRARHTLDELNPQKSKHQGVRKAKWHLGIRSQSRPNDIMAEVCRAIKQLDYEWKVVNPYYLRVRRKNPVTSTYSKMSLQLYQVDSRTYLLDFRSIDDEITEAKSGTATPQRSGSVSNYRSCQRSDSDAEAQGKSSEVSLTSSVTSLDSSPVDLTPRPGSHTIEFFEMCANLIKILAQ
T1 sequence (Q9Y478 whole entry): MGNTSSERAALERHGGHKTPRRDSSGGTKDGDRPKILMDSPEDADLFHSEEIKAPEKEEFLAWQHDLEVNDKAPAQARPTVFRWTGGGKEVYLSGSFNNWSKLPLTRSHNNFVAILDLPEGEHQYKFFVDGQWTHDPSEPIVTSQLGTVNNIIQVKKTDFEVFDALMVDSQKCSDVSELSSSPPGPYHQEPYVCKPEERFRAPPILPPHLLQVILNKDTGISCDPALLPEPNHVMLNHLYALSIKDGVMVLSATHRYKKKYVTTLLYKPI
T1 sequence (P54619 whole entry partner): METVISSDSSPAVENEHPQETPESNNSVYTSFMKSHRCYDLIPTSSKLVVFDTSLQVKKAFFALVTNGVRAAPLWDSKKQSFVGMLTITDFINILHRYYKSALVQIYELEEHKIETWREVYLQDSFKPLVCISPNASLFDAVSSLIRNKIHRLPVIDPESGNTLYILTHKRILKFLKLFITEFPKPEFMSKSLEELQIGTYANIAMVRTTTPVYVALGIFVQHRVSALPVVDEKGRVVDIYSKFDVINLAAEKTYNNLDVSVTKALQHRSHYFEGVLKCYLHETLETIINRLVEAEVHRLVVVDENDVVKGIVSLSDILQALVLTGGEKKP

Compound	Emax (AMPKα1β1γ1)	AMPK agonist activity (AMPK)
O=C(Nc1cc(Cl)c(C#CC2(O)CCC2)s1)O[C@@H]1CO[C@H]2[C@@H]1OC[C@H]2O [Compound 28]	70 to 100%	
NCCCOc1ccc(-c2sc(NC(=O)O[C@@H]3CO[C@H]4[C@@H]3OC[C@H]4O)cc2Cl)cc1 [Compound 31]	150 to 200%	
NCCCc1ccc(-c2sc(NC(=O)O[C@@H]3CO[C@H]4[C@@H]3OC[C@H]4O)cc2Cl)cc1 [Compound 32]	100 to 150%	
CCOC(=O)[C@H]1CC[C@H](OC(=O)Nc2cc(Cl)c(-c3ccc(C4(CO)CC4)cc3)s2)CC1 [Compound 37]	70 to 100%	
O=C(Nc1cc(Cl)c(-c2ccc(C3(CO)CC3)cc2)s1)O[C@H]1CC[C@H](C(=O)O)CC1 [Compound 38]	150 to 200%	
O=C(Nc1cc(Cl)c(-c2ccc(C3(CO)CC3)cc2)s1)O[C@H]1CC[C@H](CO)CC1 [Compound 39]	100 to 150%	
CCc1cc(NC(=O)O[C@@H]2CO[C@H]3[C@@H]2OC[C@H]3O)sc1-c1ccc(C2(CO)CC2)cc1 [Compound 40]	100 to 150%	
O=C(Nc1cc(Cl)c(-c2ccc(-c3ccccc3O)cc2)s1)OCCCO [Compound 42]	150 to 200%	
O=C(Nc1cc(-c2ccc(C3(CO)CC3)cc2)c(Cl)s1)O[C@@H]1CO[C@H]2[C@@H]1OC[C@H]2O [compound 1]	200 to 300%	
O=C(Nc1cc(-c2ccc(C3(CO)CC3)cc2)cs1)O[C@@H]1CO[C@H]2[C@@H]1OC[C@H]2O [compound 2]	150 to 200%	
O=C(Nc1cc(Cl)c(-c2ccc(C3(CO)CC3)cc2)s1)O[C@@H]1CO[C@H]2[C@@H]1OC[C@H]2O [compound 3]	200 to 300%	
O=C(Nc1cc(Cl)c(-c2ccc(-c3ccccc3)cc2)s1)O[C@@H]1CO[C@H]2[C@@H]1OC[C@H]2O [compound 4]	150 to 200%	
Cn1ccc2cc(-c3sc(NC(=O)O[C@@H]4CO[C@H]5[C@@H]4OC[C@H]5O)cc3Cl)ccc21 [compound 5]	150 to 200%	
O=C(Nc1cc(Cl)c(-c2ccc(-c3ccccc3O)cc2)s1)O[C@@H]1CO[C@H]2[C@@H]1OC[C@H]2O [compound 6]	200 to 300%	
O=C(Nc1cc(Cl)c(-c2ccc(C3(O)CCC3)cc2)s1)O[C@@H]1CO[C@H]2[C@@H]1OC[C@H]2O [compound 7]	200 to 300%	
Cc1cc(NC(=O)O[C@@H]2CO[C@H]3[C@@H]2OC[C@H]3O)sc1-c1ccc(C2(CO)CC2)cc1 [compound 8]	200 to 300%	
O=C(Nc1cc(Cl)c(-c2ccc(N3CCOCC3)cc2)s1)O[C@@H]1CO[C@H]2[C@@H]1OC[C@H]2O [compound 9]	150 to 200%	
COc1ccc(-c2sc(NC(=O)O[C@@H]3CO[C@H]4[C@@H]3OC[C@H]4O)cc2Cl)cc1 [compound 10]	200 to 300%	
O=C(Nc1ncc(-c2ccc(-c3ccccc3)cc2)s1)O[C@@H]1CO[C@H]2[C@@H]1OC[C@H]2O [compound 11]		no AMPK agonist activity
O=C(Nc1csc(-c2ccc(C3(CO)CC3)cc2)c1)O[C@@H]1CO[C@H]2[C@@H]1OC[C@H]2O [compound 13]	200 to 300%	
O=C(Nc1cc(Cl)c(-c2ccc(N3CCCC3)cc2)s1)O[C@@H]1CO[C@H]2[C@@H]1OC[C@H]2O [compound 14]	70 to 100%	
Cn1ccc2cc(-c3sc(NC(=O)OCCCO)cc3Cl)ccc21 [compound 15]	70 to 100%	
O=C(Nc1cc(Cl)c(C#Cc2ccccc2)s1)O[C@@H]1CO[C@H]2[C@@H]1OC[C@H]2O [compound 17]	200 to 300%	
O=C(Nc1cc(Cl)c(-c2ccc3c(ccn3C3CC3)c2)s1)O[C@@H]1CO[C@H]2[C@@H]1OC[C@H]2O [compound 18]	150 to 200%	
CS(=O)(=O)c1ccc(-c2ccc(-c3sc(NC(=O)O[C@@H]4CO[C@H]5[C@@H]4OC[C@H]5O)cc3Cl)cc2)cc1 [compound 19]	150 to 200%	
O=C(Nc1cc(Cl)c(C#Cc2ccccc2O)s1)O[C@@H]1CO[C@H]2[C@@H]1OC[C@H]2O [compound 20]	≥ 300%	
O=C(Nc1cc(C2CC2)c(-c2ccc(C3(CO)CC3)cc2)s1)O[C@@H]1CO[C@H]2[C@@H]1OC[C@H]2O [compound 22]	150 to 200%	
O=C(Nc1cc(Cl)c(-c2ccc(OCCCN3CCOCC3)cc2)s1)O[C@@H]1CO[C@H]2[C@@H]1OC[C@H]2O [compound 23]	≥ 300%	
CN1CCC(c2ccc(-c3sc(NC(=O)O[C@@H]4CO[C@H]5[C@@H]4OC[C@H]5O)cc3Cl)cc2)CC1 [compound 24]	150 to 200%	
